Assays:
[1] = biological target: T1, K-Ras G12S (Homo sapiens, UniProt P01116, G12S); test: HTRF resonance energy transfer assay, K-Ras G12S / SOS1 interaction; type: biochemical; settings: HTRF assay of Example 5; read-out: IC50 against K-Ras G12S
T1 construct: made in house; host or cells: E. coli BL21 (DE3)
How it was run: (§1)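 GST-tagged K-Ras (WT or mutant) bound to anti-GST-Eu donor was mixed with His-hSOS1 bound to anti-6His-XL665 acceptor in ~5 mM HEPES pH 7.4, 150 mM NaCl, 1 mM DTT, 0.05% BSA, 0.0025% Igepal. HTRF (ex 337, em 620/665 nm) was read after ~10 min or longer. IC50 came from the 665/620 ratio over duplicates from 10 μM to 0.01 μM.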

[2] = system: SW620 cells; test: Ras cellular assay, growth of cells with K-Ras G12V mutation (CellTiter-Glo); type: cell-based; settings: Homo sapiens, SW-620; cell growth, Example 9, G12V mutation; read-out: IC50 against SW620 cells
Protocol: For example, this assay can be also used to assess a selective growth inhibition of a mutant Ras protein relative to a wildtype, or relative to a different mutant Ras protein.
SW620 (ATCC CCL-227) and Capan-1 (ATCC HTB-79) cell lines comprise a G12V mutation and can be used to assess Ras cellular signaling in vitro, e.g., in response to the compounds herein. SW620 culture medium is prepared with RPMI-1640 and 10% heat-inactivated FBS. Capan-1 culture medium is prepared with RPMI-1640 and 10% heat-inactivated FBS. A CellTiter-Glo (CTG) luminescent based assay (Promega) is used to assess growth of the cells, as a measurement of the ability of the compounds herein to inhibit Ras signaling in the cells. The cells (e.g., 800 per well) are seeded in their respective culture medium in standard tissue culture-treated 384-well format plates (Falcon #08-772-116) or ultra-low attachment surface 384-well format plates (S-Bio #MS-9384WZ). The day after plating, cells are treated with a dilution series (e.g., a 10 point 3-fold dilution series) of the compounds herein (e.g., approximately 40 μL final volume per well). Cell viability can be monitored (e.g., approximately 6 days later) according to the manufacturer's recommended instructions, where the CellTiter-Glo reagent is added (e.g., approximately 10 μL), vigorously mixed, covered, and placed on a plate shaker (e.g., approximately for 20 min) to ensure sufficient cell lysis prior to assessment of luminescent signal. The IC50 values are determined using the four parameter fit. The resulting IC50 value is a measurement of the ability of the compounds herein to reduce cell growth of Ras-driven cells (e.g., tumor cell lines) in vitro and/or in vivo.

[3] = biological target: T2, K-Ras WT (Homo sapiens, UniProt P01116); test: HTRF resonance energy transfer assay, K-Ras WT / SOS1 interaction; type: biochemical; settings: HTRF assay of Example 5; read-out: IC50 against K-Ras WT
T2 construct: made in house; host or cells: E. coli BL21 (DE3)
How it was run: as §1

[4] = biological target: T3, K-Ras G12D (Homo sapiens, UniProt P01116, G12D); test: HTRF resonance energy transfer assay, K-Ras G12D / SOS1 interaction; type: biochemical; settings: HTRF assay of Example 5; read-out: IC50 against K-Ras G12D
T3 construct: made in house; host or cells: E. coli BL21 (DE3)
How it was run: as §1

[5] = biological target: T4, K-Ras G12V (Homo sapiens, UniProt P01116, G12V); test: HTRF resonance energy transfer assay, K-Ras G12V / SOS1 interaction; type: biochemical; settings: HTRF assay of Example 5; read-out: IC50 against K-Ras G12V
T4 construct: made in house; host or cells: E. coli BL21 (DE3)
How it was run: as §1

T4 sequence (P01116 1-188 isoform P01116-2 G12V): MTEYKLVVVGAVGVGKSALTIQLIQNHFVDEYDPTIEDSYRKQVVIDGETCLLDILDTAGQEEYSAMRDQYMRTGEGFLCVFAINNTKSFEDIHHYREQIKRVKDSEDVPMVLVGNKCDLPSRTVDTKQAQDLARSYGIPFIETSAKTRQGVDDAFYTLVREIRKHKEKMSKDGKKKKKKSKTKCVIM
T3 sequence (P01116 1-188 isoform P01116-2 G12D): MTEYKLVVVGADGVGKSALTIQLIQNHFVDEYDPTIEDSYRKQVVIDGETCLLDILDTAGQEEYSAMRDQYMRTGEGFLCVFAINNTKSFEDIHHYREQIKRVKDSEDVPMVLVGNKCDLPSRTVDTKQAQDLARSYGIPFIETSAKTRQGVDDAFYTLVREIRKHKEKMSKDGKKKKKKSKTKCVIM
T2 sequence (P01116 1-188 isoform P01116-2): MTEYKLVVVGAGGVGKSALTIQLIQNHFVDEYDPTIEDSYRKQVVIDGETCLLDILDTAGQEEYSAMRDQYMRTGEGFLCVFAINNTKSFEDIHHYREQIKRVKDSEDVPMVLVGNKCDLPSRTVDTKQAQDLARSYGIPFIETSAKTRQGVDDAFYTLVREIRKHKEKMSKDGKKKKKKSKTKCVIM
T1 sequence (P01116 1-188 isoform P01116-2 G12S): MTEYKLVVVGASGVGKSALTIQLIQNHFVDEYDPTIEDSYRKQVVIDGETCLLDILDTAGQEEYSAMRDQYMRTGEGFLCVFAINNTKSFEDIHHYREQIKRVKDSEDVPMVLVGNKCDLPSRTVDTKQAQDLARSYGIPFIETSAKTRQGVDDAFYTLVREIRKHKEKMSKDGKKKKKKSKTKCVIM

Row | SMILES | IC50 [1] [nM] | IC50 [2] [nM] | IC50 [3] [nM] | IC50 [4] [nM] | IC50 [5] [nM]
1 | C[C@H]1COc2c(Cl)c(-c3ccc(F)c4sc(N)c(C#N)c34)c(F)c3nc(OC[C@@]45CCCN4C[C@H](F)C5)nc(c23)N1C1CCOC1 (stereo partly drawn) [Compound 750, 2-amino-4-((5S)-8-chloro-10-fluoro-2-(((2R,7aS)-2-fluorotetrahydro-1H-pyrrolizin-7a(5H)-yl)methoxy)-5-methyl-4-(tetrahydrofuran-3-yl)-5,6-dihydro-4H-[1,4]oxazepino[5,6,7-de]quinazolin-9-yl)-7-fluorobenzo[b]thiophene-3-carbonitrile] | < 100 | < 5000 | < 100 | < 100 | < 100
2 | CC(O)C1COc2c(Cl)c(-c3ccc(F)c4sc(N)c(C#N)c34)c(F)c3nc(OC[C@@]45CCCN4C[C@H](F)C5)nc(c23)N1CC1CCCNC1 (stereo partly drawn) [Compound 764, 2-amino-4-(8-chloro-10-fluoro-2-(((2R,7aS)-2-fluorotetrahydro-1H-pyrrolizin-7a(5H)-yl)methoxy)-5-(1-hydroxyethyl)-4-(piperidin-3-ylmethyl)-5,6-dihydro-4H-[1,4]oxazepino[5,6,7-de]quinazolin-9-yl)-7-fluorobenzo[b]thiophene-3-carbonitrile] | < 100 | < 5000 | < 100 | < 100 | < 100
3 | Cn1nc(N)cc1CN1CCOc2c(Cl)c(-c3ccc(F)c4sc(N)c(C#N)c34)c(F)c3nc(OC[C@@]45CCCN4C[C@H](F)C5)nc1c23 [Compound 770, 2-amino-4-(4-((3-amino-1-methyl-1H-pyrazol-5-yl)methyl)-8-chloro-10-fluoro-2-(((2R,7aS)-2-fluorotetrahydro-1H-pyrrolizin-7a(5H)-yl)methoxy)-5,6-dihydro-4H-[1,4]oxazepino[5,6,7-de]quinazolin-9-yl)-7-fluorobenzo[b]thiophene-3-carbonitrile] | < 100 | < 5000 | < 100 | < 100 | < 100
4 | N#Cc1c(N)sc2c(F)ccc(-c3c(Cl)c4c5c(nc(OC[C@@]67CCCN6C[C@H](F)C7)nc5c3F)N(C3CCCC3O)CCO4)c12 (stereo partly drawn) [Compound 808, 2-amino-4-(8-chloro-10-fluoro-2-(((2R,7aS)-2-fluorotetrahydro-1H-pyrrolizin-7a(5H)-yl)methoxy)-4-(2-hydroxycyclopentyl)-5,6-dihydro-4H-[1,4]oxazepino[5,6,7-de]quinazolin-9-yl)-7-fluorobenzo[b]thiophene-3-carbonitrile] | < 100 | < 5000 | < 100 | < 100 | < 100
5 | CC1Oc2c(Cl)c(-c3ccc(F)c4sc(N)c(C#N)c34)c(F)c3nc(OC[C@@]45CCCN4C[C@H](F)C5)nc(c23)N(CC(F)F)[C@H]1C(C)(C)O (stereo partly drawn) [Compound 810, 2-amino-4-((5R)-8-chloro-4-(2,2-difluoroethyl)-10-fluoro-2-(((2R,7aS)-2-fluorotetrahydro-1H-pyrrolizin-7a(5H)-yl)methoxy)-5-(2-hydroxypropan-2-yl)-6-methyl-5,6-dihydro-4H-[1,4]oxazepino[5,6,7-de]quinazolin-9-yl)-7-fluorobenzo[b]thiophene-3-carbonitrile] | < 100 | < 5000 | < 100 | < 100 | < 100
6 | N#Cc1c(N)sc2c(F)ccc(-c3c(Cl)c4c5c(nc(OC[C@@]67CCCN6C[C@H](F)C7)nc5c3F)N(CC3CCCN3C(=O)C3CN3)CCO4)c12 (stereo partly drawn) [Compound 811, 2-amino-4-(4-((1-(aziridine-2-carbonyl)pyrrolidin-2-yl)methyl)-8-chloro-10-fluoro-2-(((2R,7aS)-2-fluorotetrahydro-1H-pyrrolizin-7a(5H)-yl)methoxy)-5,6-dihydro-4H-[1,4]oxazepino[5,6,7-de]quinazolin-9-yl)-7-fluorobenzo[b]thiophene-3-carbonitrile] | < 100 | < 5000 | < 100 | < 100 | < 100
7 | C[C@H]1COc2c(Cl)c(-c3ccc(F)c4sc(N)c(C#N)c34)c(F)c3nc(OC[C@@]45CCCN4C[C@H](F)C5)nc(c23)N1CC1CC1C#N (stereo partly drawn) [Compound 818, 2-amino-4-((5S)-8-chloro-4-((2-cyanocyclopropyl)methyl)-10-fluoro-2-(((2R,7aS)-2-fluorotetrahydro-1H-pyrrolizin-7a(5H)-yl)methoxy)-5-methyl-5,6-dihydro-4H-[1,4]oxazepino[5,6,7-de]quinazolin-9-yl)-7-fluorobenzo[b]thiophene-3-carbonitrile] | < 100 | < 5000 | < 100 | < 100 | < 100
8 | N#Cc1c(N)sc2c(F)ccc(-c3c(Cl)c4c5c(nc(OC[C@@]67CCCN6C[C@H](F)C7)nc5c3F)N(CC3CC3C#N)[C@@H](C(F)F)CO4)c12 (stereo partly drawn) [Compound 853, 2-amino-4-((5R)-8-chloro-4-((2-cyanocyclopropyl)methyl)-5-(difluoromethyl)-10-fluoro-2-(((2R,7aS)-2-fluorotetrahydro-1H-pyrrolizin-7a(5H)-yl)methoxy)-5,6-dihydro-4H-[1,4]oxazepino[5,6,7-de]quinazolin-9-yl)-7-fluorobenzo[b]thiophene-3-carbonitrile] | < 100 | < 5000 | < 100 | < 100 | < 100
9 | N#Cc1c(N)sc2c(F)ccc(-c3c(Cl)c4c5c(nc(OC[C@@]67CCCN6C[C@H](F)C7)nc5c3F)N(C3CCC(N)C3)CCO4)c12 (stereo partly drawn) [Compound 907, 2-amino-4-(4-(3-aminocyclopentyl)-8-chloro-10-fluoro-2-(((2R,7aS)-2-fluorotetrahydro-1H-pyrrolizin-7a(5H)-yl)methoxy)-5,6-dihydro-4H-[1,4]oxazepino[5,6,7-de]quinazolin-9-yl)-7-fluorobenzo[b]thiophene-3-carbonitrile] | < 100 | < 5000 | < 100 | < 100 | < 100
10 | N#Cc1c(N)sc2c(F)ccc(-c3c(Cl)c4c5c(nc(OC[C@@]67CCCN6C[C@H](F)C7)nc5c3F)N(CC(F)F)[C@@H](CNC(=O)[C@H]3CN3)CO4)c12 [Compound 1053, (2R)-N-(((5S)-9-(2-amino-3-cyano-7-fluorobenzo[b]thiophen-4-yl)-8-chloro-4-(2,2-difluoroethyl)-10-fluoro-2-(((2R,7aS)-2-fluorotetrahydro-1H-pyrrolizin-7a(5H)-yl)methoxy)-5,6-dihydro-4H-[1,4]oxazepino[5,6,7-de]quinazolin-5-yl)methyl)aziridine-2-carboxamide] | < 100 | < 5000 | < 100 | < 100 | < 100
11 | N#Cc1c(N)sc2c(F)ccc(-c3c(Cl)c4c5c(nc(OC[C@@]67CCCN6C[C@H](F)C7)nc5c3F)N(C3CC3)[C@@H](CNC=O)CO4)c12 [Compound 1084, N-(((5S)-9-(2-amino-3-cyano-7-fluorobenzo[b]thiophen-4-yl)-8-chloro-4-cyclopropyl-10-fluoro-2-(((2R,7aS)-2-fluorotetrahydro-1H-pyrrolizin-7a(5H)-yl)methoxy)-5,6-dihydro-4H-[1,4]oxazepino[5,6,7-de]quinazolin-5-yl)methyl)formamide] | < 100 | < 5000 | < 100 | < 100 | < 100
12 | N#Cc1c(N)sc2c(F)ccc(-c3c(Cl)c4c5c(nc(OC[C@@]67CCCN6C[C@H](F)C7)nc5c3F)N([C@H]3CNC[C@@H]3F)CCO4)c12 [Compound 1085, 2-amino-4-(8-chloro-10-fluoro-4-((3S,4S)-4-fluoropyrrolidin-3-yl)-2-(((2R,7aS)-2-fluorotetrahydro-1H-pyrrolizin-7a(5H)-yl)methoxy)-5,6-dihydro-4H-[1,4]oxazepino[5,6,7-de]quinazolin-9-yl)-7-fluorobenzo[b]thiophene-3-carbonitrile] | < 100 | < 5000 | < 100 | < 100 | < 100

From US12209102B2, “Heterocyclic compounds and uses thereof” (Kumquat Biosciences Inc., priority 2022, dated 2025)
